Consider 13 molecules from patent US11718605B2, “Heterocyclic compounds as immunomodulators” (Incyte Corporation, priority 2016, dated 2023).

SMILES strings stand for the structures. Where only a bound is given, the exact number is not on record here.

PD-1/PD-L1 protein/protein interaction, sequence (Q9NZQ7 19-238): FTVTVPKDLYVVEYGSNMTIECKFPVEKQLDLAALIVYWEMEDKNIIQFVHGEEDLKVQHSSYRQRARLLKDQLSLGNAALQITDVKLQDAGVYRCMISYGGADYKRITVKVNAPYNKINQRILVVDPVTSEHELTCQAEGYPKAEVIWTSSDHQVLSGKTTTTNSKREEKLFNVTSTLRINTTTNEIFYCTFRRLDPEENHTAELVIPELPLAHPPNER

The test deals with PD-1/PD-L1 protein/protein interaction (Homo sapiens (Human), UniProt Q9NZQ7). In words: PD-1/PD-L1 Homogeneous Time-Resolved Fluorescence (HTRF) Binding Assay. To be noted: recombinant human PD-L1 (19-238) His-tag 10 nM, human PD-1 (25-167) Fc tag 3 nM; 25° C., PBS pH 7.4. The procedure:
Example A. PD-1/PD-L1 Homogeneous Time-Resolved Fluorescence (HTRF) Binding Assay
The assays were conducted in a standard black 384-well polystyrene plate with a final volume of 20 μL. Inhibitors were first serially diluted in DMSO and then added to the plate wells before the addition of other reaction components. The final concentration of DMSO in the assay was 1%. The assays were carried out at 25° C. in the PBS buffer (pH 7.4) with 0.05% Tween-20 and 0.1% BSA. Recombinant human PD-L1 protein (19-238) with a His-tag at the C-terminus was purchased from AcroBiosystems (PD1-H5229). Recombinant human PD-1 protein (25-167) with Fc tag at the C-terminus was also purchased from AcroBiosystems (PD1-H5257). PD-L1 and PD-1 proteins were diluted in the assay buffer and 10 μL was added to the plate well. Plates were centrifuged and proteins were preincubated with inhibitors for 40 minutes. The incubation was followed by the addition of 10 μL of HTRF detection buffer supplemented with Europium cryptate-labeled anti-human IgG (PerkinElmer-AD0212) specific for Fc and anti-His antibody conjugated to SureLight®-Allophycocyanin (APC, PerkinElmer-AD0059H). After centrifugation, the plate was incubated at 25° C. for 60 min. before reading on a PHERAstar FS plate reader (665 nm/620 nm ratio). Final concentrations in the assay were—3 nM PD1, 10 nM PD-L1, 1 nM europium anti-human IgG and 20 nM anti-His-Allophycocyanin. IC50 determination was performed by fitting the curve of percent control activity versus the log of the inhibitor concentration using the GraphPad Prism 5.0 software.
On the technique in general: Time-resolved FRET reads energy transfer from a long-lived donor to a nearby acceptor.
In general, IC50 refers to the concentration that inhibits the measured activity by half. In the case of `Cn1cc(CNCCO)cc(C(=O)Nc2cccc(C3CCCCC3)c2C#N)c1=O` [Example 3, N-(2-cyano-3-cyclohexylphenyl)-5-{[(2-hydroxyethyl)amino]methyl}-1-methyl-2-oxo-1,2-dihydropyridine-3-carboxamide], the half-maximal inhibitory concentration (IC50) fell in the range of 100 to 500 nM. As for `COc1cccc(-c2cccc(NC(=O)c3cc(CNCCO)cn(C)c3=O)c2C)c1F` [Example 12, N-(2′-fluoro-3′-methoxy-2-methylbiphenyl-3-yl)-5-((2-hydroxyethylamino)methyl)-1-methyl-2-oxo-1,2-dihydropyridine-3-carboxamide], the IC50 is ≤ 100 nM. The result for `Cc1c(NC(=O)c2cc(CNCCO)cn(C)c2=O)cccc1-c1ccc2c(c1)OCCO2` [Example 13, N-[3-(2,3-dihydro-1,4-benzodioxin-6-yl)-2-methylphenyl]-5-{[(2-hydroxyethyl)amino]methyl}-1-methyl-2-oxo-1,2-dihydropyridine-3-carboxamide] reads ≤ 100 nM; that for `COc1cccc(-c2cccc(NC(=O)c3cc(CNCCO)cn(C)c3=O)c2C#N)c1` [Example 5, N-(2-cyano-3′-methoxybiphenyl-3-yl)-5-{[(2-hydroxyethyl)amino]methyl}-1-methyl-2-oxo-1,2-dihydropyridine-3-carboxamide], ≤ 100 nM; that for `Cc1c(NC(=O)c2cc(CNCCO)cn(C)c2=O)cccc1-c1cccc2c1cnn2C` [Example 11, 5-{[(2-hydroxyethyl)amino]methyl}-1-methyl-N-[2-methyl-3-(1-methyl-1H-indazol-4-yl)phenyl]-2-oxo-1,2-dihydropyridine-3-carboxamide], ≤ 100 nM. For the molecule `Cn1cc(CNCCO)cc(C(=O)Nc2cccc(-c3cccc4c3cnn4C)c2C#N)c1=O` [Example 8, N-(2-cyano-3-(1-methyl-1H-indazol-4-yl)phenyl)-5-((2-hydroxyethylamino)methyl)-1-methyl-2-oxo-1,2-dihydropyridine-3-carboxamide], the IC50 was ≤ 100 nM. The same measure for `Cn1cc(CNCCO)cc(C(=O)Nc2cccc(-c3ccccc3F)c2C#N)c1=O` [Example 6, N-(2-cyano-2′-fluorobiphenyl-3-yl)-5-{[(2-hydroxyethyl)amino]methyl}-1-methyl-2-oxo-1,2-dihydropyridine-3-carboxamide]: ≤ 100 nM; for `Cn1cc(CNCCO)cc(C(=O)Nc2cccc(-c3ccccc3)c2C#N)c1=O` [Example 7, N-(2-cyanobiphenyl-3-yl)-5-{[(2-hydroxyethyl)amino]methyl}-1-methyl-2-oxo-1,2-dihydropyridine-3-carboxamide]: 100 to 500 nM. For the molecule `CCn1cc(CNCCO)cc(C(=O)Nc2cccc(-c3ccccc3)c2C)c1=O` [Example 10, 1-ethyl-5-{[(2-hydroxyethyl)amino]methyl}-N-(2-methylbiphenyl-3-yl)-2-oxo-1,2-dihydropyridine-3-carboxamide], the IC50 is 100 to 500 nM. For `Cc1c(NC(=O)c2cc(CNCCO)cn(C)c2=O)cccc1-c1ccccc1` [Example 2, 5-{[(2-hydroxyethyl)amino]methyl}-1-methyl-N-(2-methylbiphenyl-3-yl)-2-oxo-1,2-dihydropyridine-3-carboxamide], the IC50 is ≤ 100 nM. For `Cc1c(NC(=O)c2cc(CN3CCCC[C@H]3C(=O)O)cn(C)c2=O)cccc1-c1ccccc1` [Example 1, (2S)-1-[(1-methyl-5-{[(2-methylbiphenyl-3-yl)amino]carbonyl}-6-oxo-1,6-dihydropyridin-3-yl)methyl]piperidine-2-carboxylic acid], the IC50 was ≤ 100 nM. The result for `CCn1cc(CN2CCCC[C@H]2C(=O)O)cc(C(=O)Nc2cccc(-c3ccccc3)c2C)c1=O` [Example 9, (2S)-1-[(1-ethyl-5-{[(2-methylbiphenyl-3-yl)amino]carbonyl}-6-oxo-1,6-dihydropyridin-3-yl)methyl]piperidine-2-carboxylic acid] reads 500 to 10000 nM; that for `Cn1cc(CNCCO)cc(C(=O)Nc2cccc(-c3ccc4c(c3)OCCO4)c2C#N)c1=O` [Example 4, N-[2-cyano-3-(2,3-dihydro-1,4-benzodioxin-6-yl)phenyl]-5-{[(2-hydroxyethyl)amino]methyl}-1-methyl-2-oxo-1,2-dihydropyridine-3-carboxamide], ≤ 100 nM.
